Laboratory results taken from ChEMBL document CHEMBL5260850, “The exploration of aza-quinolines as hematopoietic prostaglandin D synthase (H-PGDS) inhibitors with low brain exposure” (Bioorg Med Chem, 2020).
Active and inactive are the calls of the source. No cut-off for these calls is given here.

Tests used:
[1] = target: Tyrosine-protein kinase Lck (Homo sapiens) (UniProt P06239); details: dose <= 10000.0 nM
Description: Inhibition of LCK (unknown origin) upto 10000 nM

[2] = target: Vasopressin V1a receptor (Homo sapiens) (UniProt P37288); details: dose <= 10000.0 nM
Chain of Vasopressin V1a receptor (Homo sapiens) (P37288 whole entry, looked up): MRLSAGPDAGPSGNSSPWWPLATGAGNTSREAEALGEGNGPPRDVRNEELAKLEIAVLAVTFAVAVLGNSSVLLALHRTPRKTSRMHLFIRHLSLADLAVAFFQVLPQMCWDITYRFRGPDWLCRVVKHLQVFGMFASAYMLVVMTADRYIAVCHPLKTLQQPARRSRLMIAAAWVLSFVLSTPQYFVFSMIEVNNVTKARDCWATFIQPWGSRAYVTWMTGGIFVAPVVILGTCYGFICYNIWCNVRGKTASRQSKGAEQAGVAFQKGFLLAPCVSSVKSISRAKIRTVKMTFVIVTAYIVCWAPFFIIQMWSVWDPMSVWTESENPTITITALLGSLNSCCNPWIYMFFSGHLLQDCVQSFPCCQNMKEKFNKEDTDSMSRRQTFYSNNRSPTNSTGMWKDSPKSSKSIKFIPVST
Description: Inhibition of V1A receptor (unknown origin) upto 10000 nM

[3] = Toxicity in Wistar Han rat assessed as morphological changes in adrenal gland at 30 mg/kg/day, po administered QD for 7 days by microscopic analysis; type: organism-based; details: in vivo, 168 h, time 7 day

Chain of Tyrosine-protein kinase Lck (Homo sapiens) (P06239 2-509 limits assumed): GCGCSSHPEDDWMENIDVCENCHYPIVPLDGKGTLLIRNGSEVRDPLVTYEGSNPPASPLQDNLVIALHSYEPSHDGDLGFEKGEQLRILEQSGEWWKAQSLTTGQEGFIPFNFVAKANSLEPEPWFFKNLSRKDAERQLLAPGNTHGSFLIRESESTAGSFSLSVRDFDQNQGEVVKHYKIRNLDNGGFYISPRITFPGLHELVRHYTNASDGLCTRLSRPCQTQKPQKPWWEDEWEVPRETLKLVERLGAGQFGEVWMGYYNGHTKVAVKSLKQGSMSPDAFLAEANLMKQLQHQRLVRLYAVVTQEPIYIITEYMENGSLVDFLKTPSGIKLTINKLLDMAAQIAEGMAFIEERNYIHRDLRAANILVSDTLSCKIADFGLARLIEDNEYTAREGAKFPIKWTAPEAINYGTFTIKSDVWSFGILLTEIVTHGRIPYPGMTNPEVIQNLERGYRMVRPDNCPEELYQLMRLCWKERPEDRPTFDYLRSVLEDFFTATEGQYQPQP

With `CC(C)(O)[C@H]1CC[C@H](NC(=O)c2cnc3nc(C4CC4)ccc3c2)CC1` the inhibition [1] was “inactive”, the inhibition [2] was “inactive” and the Activity [3] was “Non-Toxic”.
